Data on two compounds can be found in the NIST ThermoML archive (doi:10.1016/j.tca.2011.02.008).

SMILES strings stand for the structures. Numbers after ± are expanded uncertainties.

For this data set the following is noted: 298.15 K; 101.33 kPa; Crystal; X-ray diffraction.

With `O.O.O.O.O.O.O.O=C([O-])c1cccc(C(=O)[O-])n1.O=C([O-])c1cccc(C(=O)[O-])n1.[Cu+2].[K+].[K+]` [dipotassium copper 2,6-pyridinedicarboxylate heptahydrate], the mass density is listed as 1740 ± 2 kg/m3.
Regarding `O.O.O.O.O.O.O.O=C([O-])c1cccc(C(=O)[O-])n1.O=C([O-])c1cccc(C(=O)[O-])n1.[K+].[K+].[Ni+2]` [dipotassium nickel 2,6-pyridinedicarboxylate heptahydrate], the mass density amounted to 1723 ± 2 kg/m3.

Broadly, the mass density is the mass of a sample divided by its volume.
